The source made the active and inactive calls. The calls are words filed in the database; no cut-off is given here.
What was measured:
[1] = target: Core antigen (Hepatitis B virus) (UniProt Q03732); assay: Binding affinity to Hepatitis B virus core protein assessed as inhibition of capsid assembly by measuring induction of empty capsid formation; conditions: filed as modulator
[2] = target: Core antigen (Hepatitis B virus) (UniProt Q03732); assay: Binding affinity to Hepatitis B virus core protein assessed as inhibition of capsid assembly by measuring inhibition of pgRNA-encapsidation; conditions: filed as modulator
Hepatitis B virus [3] = assay: Antiviral activity against Hepatitis B virus genotype D infected in HepDE19 cells assessed as inhibition of viral replication by measuring decrease in intracellular rcDNA level by bDNA assay; type: functional, organism-based; conditions: Hepatitis B virus, genotype D, HepDE19
[4] = Cytotoxicity against human HepDE19 cells by CellTiter-Glo assay; type: toxicity, cell-based
[5] = Selectivity index, ratio of CC50 for cytotoxicity against human HepDE19 cells to EC50 for antiviral activity against Hepatitis B virus genotype D infected in HepDE19 cells; type: toxicity, cell-based; conditions: read-out: Ratio CC50/EC50
[6] = Intrinsic clearance in mouse liver microsomes; type: ADME, Microsome; conditions: read-out: CLH
[7] = Intrinsic clearance in human liver microsomes; type: ADME, Microsome; conditions: read-out: CLH
[8] = Half life in CD-1 mouse at 10 mg/kg, po; type: ADME, organism-based; conditions: in vivo
[9] = Cmax in CD-1 mouse at 10 mg/kg, po; type: ADME, organism-based; conditions: in vivo
[10] = AUC(last) in CD-1 mouse at 10 mg/kg, po; type: ADME, organism-based; conditions: in vivo
[11] = Drug uptake in CD-1 mouse liver at 10 mg/kg, po or 2 mg/kg, iv measured after 24 hrs; type: ADME, organism-based; conditions: read-out: Drug uptake
Hepatitis B virus [12] = assay: Anti-viral activity against Hepatitis B virus infected in mouse assessed as log10 reduction of HBV DNA levels in serum at 3 mg/kg, po qd for 7 days; type: functional; conditions: time 7 day
Hepatitis B virus [13] = assay: Anti-viral activity against Hepatitis B virus infected in mouse assessed as log10 reduction of HBV DNA levels in serum at 0.3 mg/kg, po qd for 7 days; type: functional; conditions: time 7 day
Hepatitis B virus [14] = assay: Anti-viral activity against Hepatitis B virus infected in mouse assessed as log10 reduction of HBV DNA levels in serum at 1 mg/kg, po qd for 7 days; type: functional; conditions: time 7 day
Hepatitis B virus [15] = assay: Antiviral activity against Hepatitis B virus genotype D infected in HepG2-hNTCP-C4 cells assessed as inhibition of cccDNA formation by de novo infection assay; type: functional, organism-based
Hepatitis B virus [16] = assay: Antiviral activity against Hepatitis B virus Genotype A (NCBI AF537372); type: functional, organism-based
Hepatitis B virus [17] = assay: Antiviral activity against Hepatitis B virus Genotype B (NCBI GQ205440); type: functional, organism-based
Hepatitis B virus [18] = assay: Antiviral activity against Hepatitis B virus Genotype B (NCBI KU964112); type: functional, organism-based
Hepatitis B virus [19] = assay: Antiviral activity against Hepatitis B virus Genotype C (NCBI AB198079); type: functional, organism-based; conditions: genotype C (NCBI […])
Hepatitis B virus [20] = assay: Antiviral activity against Hepatitis B virus Genotype D (NCBI U95551); type: functional, organism-based
Hepatitis B virus [21] = assay: Antiviral activity against Hepatitis B virus Genotype E (NCBI HE974380); type: functional, organism-based
Hepatitis B virus [22] = assay: Antiviral activity against Hepatitis B virus Genotype E (NCBI AB091255); type: functional, organism-based
Hepatitis B virus [23] = assay: Antiviral activity against Hepatitis B virus Genotype F (NCBI HE974369); type: functional, organism-based
Hepatitis B virus [24] = assay: Antiviral activity against Hepatitis B virus Genotype H (NCBI AB064315); type: functional, organism-based
Hepatitis B virus [25] = assay: Antiviral activity against Hepatitis B virus Genotype H (NCBI AB179747); type: functional, organism-based
Hepatitis B virus [26] = assay: Antiviral activity against Hepatitis B virus genotype D harboring core protein-I105T mutant; type: functional, organism-based
Hepatitis B virus [27] = assay: Antiviral activity against Hepatitis B virus genotype D harboring core protein-T33N mutant; type: functional, organism-based

Sequence of Core antigen (Hepatitis B virus) (Q03732 as listed by the source): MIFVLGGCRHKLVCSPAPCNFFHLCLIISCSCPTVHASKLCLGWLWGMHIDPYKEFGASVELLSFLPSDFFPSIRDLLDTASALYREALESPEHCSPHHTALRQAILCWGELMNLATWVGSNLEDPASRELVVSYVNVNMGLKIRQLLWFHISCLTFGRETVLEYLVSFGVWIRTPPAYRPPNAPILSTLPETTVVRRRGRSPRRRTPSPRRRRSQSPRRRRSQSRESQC

## CN(C(=O)c1cc2cc(F)c(F)cc2[nH]1)[C@@H]1COCc2[nH]c(=O)c3cc(F)c(F)cc3c21
[1]
  Activity: Active
[2]
  Activity: Active
Hepatitis B virus [3]
  EC50: 5 nM
[4]
  CC50: > 10000 nM
[5]
  selectivity ratio: > 1500
[6]
  microsomal CLint: 25 µL/min/mg
[7]
  microsomal CLint: 45 µL/min/mg
[8]
  half-life: 10.7 h
[9]
  Cmax: 2140 ng/mL
[10]
  AUC(0-t): 31800 ng·h/mL
[11]
  concentration at 24 h: 4730 ng/g
Hepatitis B virus [12]
  log(activity): 2.86
Hepatitis B virus [13]
  log(activity): 1.48
Hepatitis B virus [14]
  log(activity): 2.92
Hepatitis B virus [15]
  EC50: 26 nM
Hepatitis B virus [16]
  EC50: 1 nM
Hepatitis B virus [17]
  EC50: 1 nM
Hepatitis B virus [18]
  EC50: 1 nM
Hepatitis B virus [19]
  EC50: 1 nM
Hepatitis B virus [20]
  EC50: 1 nM
Hepatitis B virus [21]
  EC50: 13 nM
Hepatitis B virus [22]
  EC50: 1 nM
Hepatitis B virus [23]
  EC50: 1 nM
Hepatitis B virus [24]
  EC50: 1 nM
Hepatitis B virus [25]
  EC50: 1 nM
Hepatitis B virus [26]
  EC50: 6 nM
Hepatitis B virus [27]
  EC50: 63 nM
